Source: patent US11865126B2, “Method for treating anxiety disorders, headache disorders, and eating disorders with psilocybin” (priority 2019, dated 2024)

Tests used:
healthy subjects [1] = test: NEO-Five Factor Inventory (NEO-FFI); format: in vivo, human
Method: In some embodiments, the NEO-Five Factor Inventory (NEO-FFI) test is used to evaluate the safety and/or efficacy of psilocybin. The NEO-FFI evaluates 5 broad domains of personality—Neuroticism, Extroversion, Openness, Agreeableness and Conscientiousness.
The Neuroticism Extraversion Openness-Five Factor Inventory (NEO-FFI) and Symptom Checklist-90 Item (SCL-90) were administered. Details of the MMRM applied to the change from baseline scores for the NEO-FFI and SCL-90 are provided below in Table 28.

healthy subjects [2] = test: Scale of Social Responsibility (SSR); format: in vivo, human
Method: In some embodiments, the Scale of Social Responsibility (SSR) is utilized to evaluate the safety and/or efficacy of psilocybin. The SSR measures perceptions regarding the importance of ethics and social responsibility.
The following list of outcome measures are non-exhaustive. • a. The short-term change from Baseline (Day −1 [Visit 2]) to Day 7 (Visit 5) in cognitive measures of attention, spatial and working memory and executive function was measured by a composite score of the CANTAB Panel (Spatial Working Memory [SWM], Rapid Visual Information Processing [RVP], Paired Associates Learning [PAL]). • b. The short-term change from Baseline (Day −1 [Visit 2]) to Day 7 (Visit 5) in Social Cognition Panel scales (Pictorial Empathy Test [PET], Reading the Mind in the Eyes Test [RMET], Toronto Empathy Questionnaire [TEQ], Social Value Orientation [SVO], Scale of Social Responsibility [SSR]). • c. The change from Baseline (Day −1 [Visit 2]) to Day 28 (Visit 6) in cognitive measures of attention, spatial and working memory and executive function as measured by a composite score of the CANTAB Panel (SWM, RVP, PAL). • d. The long-term change from Baseline (Day −1 [Visit 2]) to Day 84 (Visit 7) in Social Cognition Panel scales (PET, RMET, TEQ, SVO, SSR). • e. Dose-related differences between cognitive effects of psilocybin at Baseline (Day −1 [Visit 2]), Day 7 (Visit 5) and Day 28 (Visit 6), as measured by a composite score of the CANTAB Panel (SWM, RVP, PAL). • f. Dose-related differences between psychological effects of psilocybin at Baseline (Day −1 [Visit 2]), Day 7 (Visit 5) and Day 84 (Visit 7), as measured by Social Cognition Panel scales (PET, RMET, TEQ, SVO, SSR). • g. Differences in cognitive effects of psilocybin between psilocybin-naïve and experienced subjects at Baseline (Day −1 [Visit 2]), Day 7 (Visit 5) and Day 28 (Visit 6), as measured by a composite score of the CANTAB Panel (SWM, RVP, PAL). • h. Differences in Positive and Negative Affect Schedule (PANAS) after study drug administration on Day 0 (Visit 3). • i. Differences between psilocybin and placebo in the Emotion Recognition Test (ERT), Intra-Extra Dimensional Set Shift (IED), One Touch Stockings (OTS), Verbal Fluency and Digit Span Forward at Day 7 (Visit 5). • j. A composite score of the CANTAB Panel, including the following tests: • i. Spatial Working Memory (SWM) (performed at Visit 2, Visit 5, and Visit 6). • ii. Rapid Visual Information Processing (RVP) (performed at Visit 2, Visit 5, and Visit 6). • iii. Paired Associates Learning (PAL) (performed at Visit 2, Visit 5, and Visit 6). • k. Cognitive Flexibility Panel • i. Emotion Recognition Task (ERT) (performed at Visit 5). • ii. Intra-Extra Dimensional Set Shift (IED) (performed at Visit 5). • iii. One Touch Stockings (OTS) (performed at Visit 5). • iv. Verbal Fluency (performed at Visit 5). • v. Digit Span Forward (performed at Visit 5). • l. Five Dimension Altered States of Consciousness questionnaire (5D-ASC) (performed at Visit 3). • m. PANAS (performed at Visit 2 and Visit 3). • n. NEO-Five Factor Inventory (NEO-FFI) (performed at Visit 2, Visit 5, and Visit 7). • o. Symptom Checklist-90 item (SCL-90) (performed at Visit 2, Visit 5, and Visit 7). • p. Life Changes Inventory (LCI): The LCI measures changes in attitudes and values after near-death experiences often used to evaluate personal transformation following spiritually oriented experiences and practices. (performed at Visit 5 and Visit 7). • q. Social Cognition Panel scales • i. Pictorial Empathy Test (PET) (performed at Visit 2, Visit 5, and Visit 7). • ii. Reading the Mind in the Eyes Test (RMET) (performed at Visit 2, Visit 5, and Visit 7). • iii. Social Value Orientation (SVO) (performed at Visit 2, Visit 5, and Visit 7). • iv. Toronto Empathy Questionnaire (TEQ) (performed at Visit 2, Visit 5, and Visit 7). • v. Scale of Social Responsibility (SSR) (performed at Visit 2, Visit 5, and Visit 7). • r. Sheehan Suicidality Tracking Scale (SSTS) • s. […]

## CN(C)CCc1c[nH]c2cccc(OP(=O)(O)O)c12 [psilocybin]
Healthy subjects [1]; Day 7
  NEO agreeableness change from baseline, difference Psilocybin 10 mg - Placebo: −0.4
  NEO agreeableness change from baseline, difference Psilocybin 25 mg - Placebo: −0.1
  NEO agreeableness change from baseline, difference Psilocybin (25 mg-10 mg): 0.4
  NEO conscientiousness change from baseline, difference Psilocybin 10 mg - Placebo: 0.4
  NEO conscientiousness change from baseline, difference Psilocybin 25 mg - Placebo: 0.7
  NEO conscientiousness change from baseline, difference Psilocybin (25 mg-10 mg): 0.3
  NEO extraversion change from baseline, difference Psilocybin 10 mg - Placebo: 0.4
  NEO extraversion change from baseline, difference Psilocybin 25 mg - Placebo: 0.5
  NEO extraversion change from baseline, difference Psilocybin (25 mg-10 mg): 0.1
  NEO neuroticism change from baseline, difference Psilocybin 10 mg - Placebo: −0.2
  NEO neuroticism change from baseline, difference Psilocybin 25 mg - Placebo: 0.2
  NEO neuroticism change from baseline, difference Psilocybin (25 mg-10 mg): −0.0
  NEO openness change from baseline, difference Psilocybin 10 mg - Placebo: 1.1
  NEO openness change from baseline, difference Psilocybin 25 mg - Placebo: 1.2
  NEO openness change from baseline, difference Psilocybin (25 mg-10 mg): 0.1
Healthy subjects [1]; Day 84
  NEO agreeableness change from baseline, difference Psilocybin 10 mg - Placebo: −0.8
  NEO agreeableness change from baseline, difference Psilocybin 25 mg - Placebo: −0.7
  NEO agreeableness change from baseline, difference Psilocybin (25 mg-10 mg): 0.1
  NEO conscientiousness change from baseline, difference Psilocybin 10 mg - Placebo: 0.2
  NEO conscientiousness change from baseline, difference Psilocybin 25 mg - Placebo: 1.4
  NEO conscientiousness change from baseline, difference Psilocybin (25 mg-10 mg): 1.2
  NEO extraversion change from baseline, difference Psilocybin 10 mg - Placebo: −0.7
  NEO extraversion change from baseline, difference Psilocybin 25 mg - Placebo: −0.5
  NEO extraversion change from baseline, difference Psilocybin (25 mg-10 mg): 0.2
  NEO neuroticism change from baseline, difference Psilocybin 10 mg - Placebo: 0.3
  NEO neuroticism change from baseline, difference Psilocybin 25 mg - Placebo: −1.0
  NEO neuroticism change from baseline, difference Psilocybin (25 mg-10 mg): −1.3
  NEO openness change from baseline, difference Psilocybin 10 mg - Placebo: 1.1
  NEO openness change from baseline, difference Psilocybin 25 mg - Placebo: 0.4
  NEO openness change from baseline, difference Psilocybin (25 mg-10 mg): −0.7
Healthy subjects [2]; Day 7, MMRM
  SSR compliance social rules change from baseline, LS mean difference Psilocybin 10 mg - Placebo: 0.0
  SSR compliance social rules change from baseline, LS mean difference Psilocybin 25 mg - Placebo: 0.1
  SSR compliance social rules change from baseline, LS mean difference Psilocybin 25 mg-10 mg: 0.1
  SSR fulfilling expectations change from baseline, LS mean difference Psilocybin 10 mg - Placebo: 0.1
  SSR fulfilling expectations change from baseline, LS mean difference Psilocybin 25 mg - Placebo: 0.2
  SSR fulfilling expectations change from baseline, LS mean difference Psilocybin 25 mg-10 mg: 0.1
  SSR global change from baseline, LS mean difference Psilocybin 10 mg - Placebo: 1.2
  SSR global change from baseline, LS mean difference Psilocybin 25 mg - Placebo: 2.8
  SSR global change from baseline, LS mean difference Psilocybin 25 mg-10 mg: 1.6
Healthy subjects [2]; Day 84, MMRM
  SSR compliance social rules change from baseline, LS mean difference Psilocybin 10 mg - Placebo: −0.0
  SSR compliance social rules change from baseline, LS mean difference Psilocybin 25 mg - Placebo: 0.1
  SSR compliance social rules change from baseline, LS mean difference Psilocybin 25 mg-10 mg: 0.1
  SSR fulfilling expectations change from baseline, LS mean difference Psilocybin 10 mg - Placebo: −0.1
  SSR fulfilling expectations change from baseline, LS mean difference Psilocybin 25 mg - Placebo: 0.0
  SSR fulfilling expectations change from baseline, LS mean difference Psilocybin 25 mg-10 mg: 0.2
  SSR global change from baseline, LS mean difference Psilocybin 10 mg - Placebo: 0.3
  SSR global change from baseline, LS mean difference Psilocybin 25 mg - Placebo: 2.2
  SSR global change from baseline, LS mean difference Psilocybin 25 mg-10 mg: 1.8
Healthy subjects [2]; Psilocybin 10 mg, Day 7, MMRM
  SSR fulfilling expectations change from baseline, LS mean: −0.1
Healthy subjects [2]; Psilocybin 10 mg, Day 84, MMRM
  SSR fulfilling expectations change from baseline, LS mean: 0.2
Healthy subjects [2]; Psilocybin 25 mg, Day 7, MMRM
  SSR fulfilling expectations change from baseline, LS mean: −0.0
Healthy subjects [2]; Psilocybin 25 mg, Day 84, MMRM
  SSR fulfilling expectations change from baseline, LS mean: −0.0
